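Protocol summary: plate cells (96-well), add compound at 5 concentrations, incubate 48 h, interpolate endpoints linearly. GI50: concentration for 50% inhibition of growth.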 Activity calls are given as the source filed them. Rule as the data show it: active = GI50 up to about 1.1 µM and inactive = higher.
Columns and labels:
Experiment in all cases: NCI-60 cell line screen, 48 h
SF-295 = system: SF-295
MDA-MB-435 = system: MDA-MB-435
BT-549 = system: BT-549
MDA-MB-231 = system: MDA-MB-231
SN12C = system: SN12C
HOP-92 = system: HOP-92
HOP-62 = system: HOP-62
OVCAR-8 = system: OVCAR-8
KM12 = system: KM12
A549 = system: A549
IGROV-1 = system: IGROV-1
MOLT-4 = system: MOLT-4
M14 = system: M14
Malme-3M = system: Malme-3M
HCT-116 = system: HCT-116
HCC 2998 = system: HCC 2998
DU-145 = system: DU-145
HCT-15 = system: HCT-15
SF-268 = system: SF-268
UACC-257 = system: UACC-257
NCI-H460 = system: NCI-H460
OVCAR-4 = system: OVCAR-4
CCRF-CEM = system: CCRF-CEM
NCI-H522 = system: NCI-H522
T47D = system: T47D
Hs-578T = system: Hs-578T
SK-MEL-5 = system: SK-MEL-5
U-251 = system: U-251
SF-539 = system: SF-539
MCF7 = system: MCF7
SK-MEL-28 = system: SK-MEL-28
SR = system: SR
SW-620 = system: SW-620
K562 = system: K562
SNB-19 = system: SNB-19
UO-31 = system: UO-31
A498 = system: A498
NCI-H23 = system: NCI-H23
PC-3 = system: PC-3
ACHN = system: ACHN
RPMI-8226 = system: RPMI-8226
TK-10 = system: TK-10
SK-MEL-2 = system: SK-MEL-2
OVCAR-5 = system: OVCAR-5
SNB-75 = system: SNB-75
HL-60 = system: HL-60
RXF 393 = system: RXF 393
COLO 205 = system: COLO 205
NCI/ADR-RES = system: NCI/ADR-RES
NCI-H226 = system: NCI-H226
MDA-N = system: MDA-N
LOX IMVI = system: LOX IMVI
HT-29 = system: HT-29
EKVX = system: EKVX
786-0 = system: 786-0
UACC-62 = system: UACC-62
SK-OV-3 = system: SK-OV-3
OVCAR-3 = system: OVCAR-3
CAKI-1 = system: CAKI-1

## O=[N+]([O-])c1ccc(C(O)(C#CCN2CCCC2)c2ccccc2)cc1 (centres undefined)
SF-295
  GI50: 30.4 µM (inactive)
MDA-MB-435
  GI50: 24.1 µM (inactive)
BT-549
  GI50: 77.4 µM (inactive)
MDA-MB-231
  GI50: 43 µM (inactive)
SN12C
  GI50: 38.3 µM (inactive)
HOP-92
  GI50: 10.2 µM (inactive)
HOP-62
  GI50: 92.5 µM (inactive)
OVCAR-8
  GI50: 36.6 µM (inactive)
KM12
  GI50: 41.8 µM (inactive)
A549
  GI50: 81.5 µM (inactive)
IGROV-1
  GI50: 25.8 µM (inactive)
MOLT-4
  GI50: 25.8 µM (inactive)
M14
  GI50: 17.5 µM (inactive)
Malme-3M
  GI50: 16.6 µM (inactive)
HCT-116
  GI50: 46.6 µM (inactive)
HCC 2998
  GI50: 16.2 µM (inactive)
DU-145
  GI50: > 100 µM (inactive)
HCT-15
  GI50: 60.7 µM
SF-268
  GI50: 27 µM (inactive)
UACC-257
  GI50: 25.6 µM (inactive)
NCI-H460
  GI50: 56.2 µM (inactive)
OVCAR-4
  GI50: 31.5 µM (inactive)
CCRF-CEM
  GI50: 24.5 µM (inactive)
NCI-H522
  GI50: 22.4 µM (inactive)
T47D
  GI50: 28.5 µM (inactive)
Hs-578T
  GI50: 28.9 µM (inactive)
SK-MEL-5
  GI50: 21 µM (inactive)
U-251
  GI50: 38.9 µM (inactive)
SF-539
  GI50: 82 µM (inactive)
MCF7
  GI50: 53.7 µM (inactive)
SK-MEL-28
  GI50: 17.6 µM (inactive)
SR
  GI50: 23.7 µM (inactive)
SW-620
  GI50: 98.9 µM (inactive)
K562
  GI50: 19.7 µM (inactive)
SNB-19
  GI50: 98.2 µM (inactive)
UO-31
  GI50: 26.1 µM (inactive)
A498
  GI50: 23.3 µM (inactive)
NCI-H23
  GI50: 96.8 µM (inactive)
PC-3
  GI50: 30.4 µM (inactive)
ACHN
  GI50: 56.2 µM (inactive)
RPMI-8226
  GI50: 26.7 µM (inactive)
TK-10
  GI50: 52.1 µM (inactive)
SK-MEL-2
  GI50: 24.5 µM (inactive)
OVCAR-5
  GI50: 57.9 µM (inactive)
SNB-75
  GI50: 30.1 µM (inactive)
HL-60
  GI50: 18.4 µM (inactive)
RXF 393
  GI50: 57.9 µM (inactive)
COLO 205
  GI50: 18 µM (inactive)
NCI/ADR-RES
  GI50: 69.5 µM (inactive)
NCI-H226
  GI50: 81.5 µM (inactive)
MDA-N
  GI50: 34.1 µM (inactive)
LOX IMVI
  GI50: 16.2 µM (inactive)
HT-29
  GI50: 17 µM (inactive)
EKVX
  GI50: 54.6 µM (inactive)
786-0
  GI50: 39.4 µM (inactive)
UACC-62
  GI50: 24.7 µM (inactive)
SK-OV-3
  GI50: 80.7 µM (inactive)
OVCAR-3
  GI50: 49 µM (inactive)

## O=C1COCCN1C(=O)c1ccccc1Cl
SF-295
  GI50: > 100 µM (inactive)
MDA-MB-435
  GI50: > 100 µM (inactive)
BT-549
  GI50: > 100 µM (inactive)
MDA-MB-231
  GI50: > 100 µM (inactive)
SN12C
  GI50: > 100 µM (inactive)
HOP-92
  GI50: > 100 µM (inactive)
HOP-62
  GI50: > 100 µM (inactive)
OVCAR-8
  GI50: > 100 µM (inactive)
KM12
  GI50: > 100 µM (inactive)
A549
  GI50: > 100 µM (inactive)
IGROV-1
  GI50: > 100 µM (inactive)
MOLT-4
  GI50: > 10 µM (inactive)
M14
  GI50: > 100 µM (inactive)
Malme-3M
  GI50: > 100 µM (inactive)
HCT-116
  GI50: > 100 µM (inactive)
HCC 2998
  GI50: > 100 µM (inactive)
DU-145
  GI50: > 100 µM (inactive)
HCT-15
  GI50: > 100 µM
CAKI-1
  GI50: > 100 µM (inactive)
SF-268
  GI50: > 100 µM (inactive)
UACC-257
  GI50: > 100 µM (inactive)
NCI-H460
  GI50: > 100 µM (inactive)
OVCAR-4
  GI50: > 100 µM (inactive)
CCRF-CEM
  GI50: > 100 µM (inactive)
NCI-H522
  GI50: > 100 µM (inactive)
T47D
  GI50: > 100 µM (inactive)
Hs-578T
  GI50: > 100 µM (inactive)
SK-MEL-5
  GI50: > 100 µM (inactive)
U-251
  GI50: > 100 µM (inactive)
SF-539
  GI50: > 100 µM (inactive)
MCF7
  GI50: 34 µM (inactive)
SK-MEL-28
  GI50: > 100 µM (inactive)
SR
  GI50: > 100 µM (inactive)
SW-620
  GI50: > 100 µM (inactive)
K562
  GI50: > 100 µM (inactive)
SNB-19
  GI50: > 100 µM (inactive)
UO-31
  GI50: > 100 µM (inactive)
A498
  GI50: > 100 µM (inactive)
NCI-H23
  GI50: > 100 µM (inactive)
PC-3
  GI50: > 100 µM (inactive)
ACHN
  GI50: > 100 µM (inactive)
RPMI-8226
  GI50: > 100 µM (inactive)
TK-10
  GI50: > 100 µM (inactive)
OVCAR-5
  GI50: > 100 µM (inactive)
SNB-75
  GI50: > 100 µM (inactive)
HL-60
  GI50: > 100 µM (inactive)
RXF 393
  GI50: > 100 µM (inactive)
NCI/ADR-RES
  GI50: > 100 µM (inactive)
NCI-H226
  GI50: > 100 µM (inactive)
MDA-N
  GI50: > 100 µM (inactive)
LOX IMVI
  GI50: > 100 µM (inactive)
HT-29
  GI50: > 100 µM (inactive)
EKVX
  GI50: > 100 µM (inactive)
786-0
  GI50: > 100 µM (inactive)
UACC-62
  GI50: > 100 µM (inactive)
OVCAR-3
  GI50: > 100 µM (inactive)

## O=C(N/N=C/c1ccc([N+](=O)[O-])o1)c1ccc(C(=O)N/N=C/c2ccc([N+](=O)[O-])o2)cc1
SF-295
  GI50: 40.4 µM (inactive)
MDA-MB-435
  GI50: 16.2 µM (inactive)
BT-549
  GI50: > 100 µM (inactive)
MDA-MB-231
  GI50: > 100 µM (inactive)
SN12C
  GI50: 42.8 µM (inactive)
HOP-92
  GI50: 53.8 µM (inactive)
HOP-62
  GI50: 47.8 µM (inactive)
OVCAR-8
  GI50: 28.4 µM (inactive)
KM12
  GI50: 28.5 µM (inactive)
A549
  GI50: 45.5 µM (inactive)
IGROV-1
  GI50: 30.7 µM (inactive)
MOLT-4
  GI50: 23.8 µM (inactive)
M14
  GI50: 35.5 µM (inactive)
Malme-3M
  GI50: 21.2 µM (inactive)
HCT-116
  GI50: 30.1 µM (inactive)
DU-145
  GI50: 64.4 µM (inactive)
HCT-15
  GI50: 29.8 µM
CAKI-1
  GI50: 35.4 µM (inactive)
SF-268
  GI50: 64.7 µM (inactive)
OVCAR-4
  GI50: 45 µM (inactive)
CCRF-CEM
  GI50: 14.8 µM (inactive)
NCI-H522
  GI50: 48.3 µM (inactive)
T47D
  GI50: 41.3 µM (inactive)
Hs-578T
  GI50: > 100 µM (inactive)
SK-MEL-5
  GI50: 22.6 µM (inactive)
U-251
  GI50: 50.2 µM (inactive)
SF-539
  GI50: 14.9 µM (inactive)
MCF7
  GI50: 15.7 µM (inactive)
SK-MEL-28
  GI50: 13.2 µM (inactive)
SR
  GI50: 29.8 µM (inactive)
SW-620
  GI50: 22.4 µM (inactive)
K562
  GI50: 34.4 µM (inactive)
SNB-19
  GI50: 51.4 µM (inactive)
UO-31
  GI50: > 100 µM (inactive)
A498
  GI50: 8.87 µM (inactive)
NCI-H23
  GI50: 42.3 µM (inactive)
PC-3
  GI50: 64.7 µM (inactive)
ACHN
  GI50: 10.2 µM (inactive)
RPMI-8226
  GI50: 2.55 µM (inactive)
SK-MEL-2
  GI50: 74.5 µM (inactive)
OVCAR-5
  GI50: > 100 µM (inactive)
SNB-75
  GI50: > 100 µM (inactive)
HL-60
  GI50: 21.7 µM (inactive)
RXF 393
  GI50: 36.6 µM (inactive)
COLO 205
  GI50: 28.1 µM (inactive)
NCI/ADR-RES
  GI50: 73.3 µM (inactive)
NCI-H226
  GI50: > 100 µM (inactive)
MDA-N
  GI50: 20.7 µM (inactive)
LOX IMVI
  GI50: 34.2 µM (inactive)
HT-29
  GI50: 38.6 µM (inactive)
EKVX
  GI50: > 100 µM (inactive)
786-0
  GI50: 76.2 µM (inactive)
UACC-62
  GI50: 13.8 µM (inactive)
SK-OV-3
  GI50: > 100 µM (inactive)
OVCAR-3
  GI50: 26.1 µM (inactive)
